From paper PMC6461504 (ACS infectious diseases, 2019)
Where two headings read alike, the source gives them in different places.

Legend:
S. aureus gyrase [1] = molecular target: T1, S. aureus gyrase (Staphylococcus aureus, UniProt P0A0K8+P20831); assay: DNA cleavage competition assay, gepotidacin vs moxifloxacin; format: biochemical; details: 100 μM gepotidacin plus 25 μM moxifloxacin
[2] = tested on: negatively supercoiled pBR322 DNA; assay: DNA cleavage control without gyrase; details: 200 μM gepotidacin, 3 h incubation, no gyrase
S. aureus gyrase [3] = molecular target: T1, S. aureus gyrase
[4] = molecular target: S. aureus gyrase-DNA cleavage complexes (Staphylococcus aureus, UniProt P0A0K8+P20831); assay: Stability; details: 5 μM gepotidacin, 20-fold dilution into buffer lacking divalent metal ion
Sequence of S. aureus gyrase-DNA cleavage complexes (P20831 whole entry): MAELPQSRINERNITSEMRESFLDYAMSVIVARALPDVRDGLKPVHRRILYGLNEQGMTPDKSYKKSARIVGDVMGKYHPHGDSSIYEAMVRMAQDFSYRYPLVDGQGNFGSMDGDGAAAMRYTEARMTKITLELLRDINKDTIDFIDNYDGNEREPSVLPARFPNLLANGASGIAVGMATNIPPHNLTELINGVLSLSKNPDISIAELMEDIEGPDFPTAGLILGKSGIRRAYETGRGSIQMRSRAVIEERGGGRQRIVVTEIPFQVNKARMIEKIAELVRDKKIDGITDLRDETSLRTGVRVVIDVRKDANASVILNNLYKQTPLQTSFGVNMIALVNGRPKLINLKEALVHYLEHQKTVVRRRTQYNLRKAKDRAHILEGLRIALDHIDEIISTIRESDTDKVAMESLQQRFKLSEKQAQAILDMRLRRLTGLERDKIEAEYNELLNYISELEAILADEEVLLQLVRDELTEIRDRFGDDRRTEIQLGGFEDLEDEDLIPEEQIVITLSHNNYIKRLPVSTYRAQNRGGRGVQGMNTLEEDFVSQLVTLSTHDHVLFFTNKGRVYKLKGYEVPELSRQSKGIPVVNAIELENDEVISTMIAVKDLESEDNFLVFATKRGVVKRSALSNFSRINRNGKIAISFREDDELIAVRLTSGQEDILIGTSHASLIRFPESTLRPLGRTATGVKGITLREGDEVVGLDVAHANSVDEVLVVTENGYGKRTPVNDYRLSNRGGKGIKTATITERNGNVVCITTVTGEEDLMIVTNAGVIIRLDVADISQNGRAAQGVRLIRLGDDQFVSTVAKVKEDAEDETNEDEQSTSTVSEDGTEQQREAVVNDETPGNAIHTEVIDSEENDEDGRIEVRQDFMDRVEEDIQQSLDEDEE
Sequence of S. aureus gyrase-DNA cleavage complexes (P0A0K8 whole entry): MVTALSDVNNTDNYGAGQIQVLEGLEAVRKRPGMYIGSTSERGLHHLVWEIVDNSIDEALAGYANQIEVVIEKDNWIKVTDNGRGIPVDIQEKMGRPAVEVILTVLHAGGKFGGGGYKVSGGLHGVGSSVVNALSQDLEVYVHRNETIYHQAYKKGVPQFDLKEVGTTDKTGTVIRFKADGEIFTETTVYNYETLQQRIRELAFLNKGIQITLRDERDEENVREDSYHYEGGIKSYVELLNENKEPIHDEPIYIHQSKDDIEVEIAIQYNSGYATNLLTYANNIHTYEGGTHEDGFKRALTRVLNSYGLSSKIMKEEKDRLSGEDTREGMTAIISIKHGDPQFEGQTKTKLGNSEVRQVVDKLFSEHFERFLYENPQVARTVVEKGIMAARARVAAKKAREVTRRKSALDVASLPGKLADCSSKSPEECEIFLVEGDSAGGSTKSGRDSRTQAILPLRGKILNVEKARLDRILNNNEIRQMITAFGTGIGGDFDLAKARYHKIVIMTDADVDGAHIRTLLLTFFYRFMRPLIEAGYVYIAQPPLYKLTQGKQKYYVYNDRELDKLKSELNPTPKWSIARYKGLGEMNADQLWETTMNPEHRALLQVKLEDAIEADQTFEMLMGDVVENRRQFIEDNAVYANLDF

T1 sequence (P0A0K8 whole entry): as above
T1 sequence (P20831 whole entry): as the sequence (P20831 whole entry) above

Row | Structure (SMILES) | drop in levels of moxifloxacin-induced double-stranded breaks (S. aureus gyrase [1]) | DNA cleavage when gyrase was left out [2] | type of DNA breaks at high concentration (S. aureus gyrase [3]; 200 μM, time course 6 times longer than standard) | gyrase-mediated double-stranded DNA cleavage (S. aureus gyrase [3]; 1.5 mM ATP) | type of DNA breaks created (S. aureus gyrase [3]; 5 or 200 μM, negatively supercoiled DNA) | effect on double-stranded DNA cleavage in the presence of Ca2+ (S. aureus gyrase [3]; MgCl2 replaced by CaCl2, increasing gepotidacin concentrations) | gyrase-mediated double-stranded DNA breaks (S. aureus gyrase [3]; high gepotidacin concentration, long cleavage times, or presence of ATP) | levels of single-stranded breaks, positively vs negatively supercoiled plasmid (S. aureus gyrase [3]; lower with positively supercoiled plasmid) | single-stranded DNA breaks, share of the initial substrate (S. aureus gyrase [3]; negatively supercoiled plasmid, low micromolar concentrations) | gyrase-mediated double-stranded DNA breaks (S. aureus gyrase [3]; positively supercoiled DNA) | stability of gyrase-DNA cleavage complexes [4] [h] | fall in potency with positively vs negatively supercoiled substrates (S. aureus gyrase [3]; double-stranded breaks)
1 | O=c1ccc2ncc(=O)n3c2n1C[C@H]3CN1CCC(NCc2cc3c(cn2)OCCC3)CC1 [Gepotidacin] | ~ 95% | no DNA cleavage was observed | only single-stranded breaks were observed | no double-stranded DNA cleavage was observed | all of the breaks created in the presence of gepotidacin were single-stranded | coordinate decrease in levels of double-stranded DNA cleavage | No double-stranded breaks were observed | ~ 2 fold | more than 30% | no double-stranded breaks were observed | > 4 | –
2 | COc1c(N2C[C@@H]3CCCN[C@@H]3C2)c(F)cc2c(=O)c(C(=O)O)cn(C3CC3)c12 [moxifloxacin, reference compound] | – | – | – | – | – | – | – | – | – | – | – | ~ 8 fold
